Source: US6355619B1, “Peptide tumor cell growth inhibitors” (Board of Regents, The University of Texas System, priority 1996, dated 2002)
Like-named read-outs stand apart in the source and are kept apart here.

Columns and labels:
[1] = tested on: A549 (adenocarcinoma of lung); experiment: Growth of A549, cell count; type: cell-based; details: A549, 7 days, media replaced every 24 hours
Description: FIG. 20 The effect of Antileukinate on growth of A549 (adenocarcinoma of lung). A549 cells were plated at a density of 5×10^3 cells in 24-well plate with growth medium. After the cells adhered to the plate, supernatants were aspirated and culture media containing various concentrations of Antileukinate were added to the wells. The media was replaced every 24 hours and the cells were cultured for 7 days. After incubation, cells were detatched with trypsin-EDTA and the cell number was counted using a hemocytometer. Cell number was decreased in a dose-dependent manner and there are significant differences from control at concentrations greater than, or equal to 50 μM of Antileukinate (p<0.05).

[2] = tested on: MGSA/GROα receptors on RPMI-7951 melanoma cells; experiment: Binding of 125I-MGSA/GROα to RPMI-7951 melanoma cells; details: RPMI-7951, 1 nM 125I-labeled MGSA/GROα; read-out: EC50, inhibition of MGSA/GROα binding
Description: FIG. 11A. The binding of ^125I-labeled MGSA/GROα to melanoma cell lines, Hs 294T and RPMI-7951. The melanoma cells, 1×10^5, were incubated with 1 nM ^125I-MGSA/GROα in the presence of various concentrations of unlabeled MGSA/GROα. Binding inhibition curve with Hs 294T (closed circles) and RPMI-7951 (open circles). The lines shown in the graph are the best fit curves calculated using the London II computer program.
FIG. 13. The effect of Antileukinate on the binding of radiolabeled MGSA/GROα to the melanoma cell lines. The melanoma cells, Hs 294T (closed circles) and RPMI-7951 (open circles), were incubated with 1 nM ^125I-MGSA/GROα in the presence of different concentrations of Antileukinate. The lines shown in the graph are the best fit curves calculated using the London II computer program.
Recombinant human MGSA/GROα and IL-8 were purchased form Pepro Tech Inc. (Rocky Hill, N.J.) and radioactively labeled using ^125I-labeled Bolton-Hunter reagent (DuPont-NEN, Wilmington, Del.) (Bolton and Hunter, 1973). The labeled proteins were isolated using Sephadex G-25 column (Column PD-10, Pharmacia) pre-equilibrated with PBS containing 0.1% gelatin and stored at −70° C. after the addition of 1% bovine serum albumin.
Binding studies with melanoma cell lines were performed by the method of Horuk and colleagues (Horuk et al., 1993). Briefly, the cells (1×10^5 cells/well) in 24-well plates were washed two times with Hank's Balanced Salt Solution and incubated with ^125I-labeled MGSA/GROα or IL-8 in the buffer containing 1% bovine serum albumin at 4° C. for 3 hr. The incubation was terminated by vacuum aspiration of the supernatant. The cells were washed three times in binding buffer, solubilized by the addition of 200 μl of 1% SDS, and transferred to vials for counting. The non-specific binding was estimated by measuring the binding in the presence of 100-fold excess of non-labeled ligand. The binding parameters were calculated using the Lundon II computer program (Lundon Software Inc., Chagrin Falls, Ohio).

[3] = tested on: DU145 (adenocarcinoma of prostate); experiment: Growth of DU145, MTT assay; type: cell-based; details: DU145, serum-starved, 24 hours
Description: FIG. 18. The effect of Antileukinate on growth of DU145 (adenocarcinoma of prostate) cell line. Serum-starved DU145 were incubated with the indicated concentrations of Antileukinate for 24 hours. MTT assay was then performed. Cell umber was decreased in a dose-dependent manner and there are significant differences from controls at concentrations greater than, or equal to 100 μM of Antileukinate (p<0.05).

[4] = tested on: IL-8 receptors on neutrophils; experiment: Inhibition of 125I-labeled IL-8 binding to human neutrophils; details: for Receptor 1 Bmax of IL-8, two-site model / Receptor 2 Bmax of IL-8, two-site model: binding isotherms, Lundon I
Description: Therefore, in pursuing this aim, the present inventors assayed various other peptide compositions for IL-8 inhibitory activity by screening a library of 400 groups of hexapeptides. In these screening assays, ^125I-labeled interleukin-8 (10^−12 M) was mixed with 100 μM peptide, then added to neutrophils and incubated at 4° C. for 90 min. The bound radioactivity was separated from unbound by centrifugation through a dense cushion of a mixture of paraffin and silicon oils and the ^125I bound to neutrophils was counted in a gamma radiation spectrometer, allowing the results to be expressed as the percent of IL-8 binding which was inhibited.
The use of human subjects for acquisition of neutrophils was approved by the Institutional Review Board for human experimentation. For the preparation of neutrophils, human blood was anticoagulated with heparin for enzyme release studies and with 0.33% sodium citrate for other studies. For chemotactic and enzyme release studies neutrophils were separated by dextran sedimentation and erythrocyte lysis by the method of Boyum (Kohler and Milstein, 1975). For binding studies and cytotoxic studies, the neutrophils were further purified in gradients of Percoll (Pharmacia Fine Chemicals, Piscataway, N.J.) to a purity of 90-93% (Kohler and Milstein, 1975).
Recombinant human IL-8 (72 amino acids; Pepro Tech Inc., Rocky Hill, N.J.) was radioactively labeled with ^125I by the chloramine T method of Hunter and Greenwood (Hunter and Greenwood, 1962). Binding studies were performed according to Besemer et al. (1989), as follows: Neutrophils in phosphate buffered saline pH 7.4 (PBS) containing 0.1% bovine serum albumin (BSA) were incubated with labeled ligand in the presence or absence of the peptide being tested for 90 min at 4° C. to reach equilibrium and then centrifuged at 12,000×g for 3 min in Beckman B microfuge (Beckman Instruments, Fullerton, Calif.), through a cushion consisting of a mixture of paraffin oil Fisher Scientific, Fair Lawn, N.J.) and silicon oil (Serva Co., N.Y., N.Y.). The pellet and supernatant were then counted in a gamma radiation spectrometer. The non-specific binding was estimated to measure the binding in the presence of 100-fold excess of non-labeled ligand. The binding constants were calculated using the computer programs Lundon I and Lundon II.
In these studies, a screening for inhibition was carried out at 100 μM concentration of the peptide being tested, with a 10^−12 M concentration of IL-8. In the first series of studies, twenty peptides were synthesized with the carboxyl-terminal residue of RRWWCX (SEQ ID NO:23) being changed to each of the standard protein amino acids in turn.

[5] = +10 μM Ac-RRWWCR, binding inhibition curves, Lundon II

Substance: RRWWCR [Ac-RRWWCR-NH2]
- concentrations with significant difference in cell number from control (p<0.05) [1]: ≥ 50 µM
- EC50 [2]: ~1 µM
- concentrations with significant difference in cell number from controls (p<0.05) [3]: ≥ 100 µM
- concentration at which IL-8 binding was suppressed significantly ([4]; 1 nM 125I-labeled IL-8 (FIG. 5)): 100 nM
- EC50 ([4]; 1 nM 125I-labeled IL-8, 90 min at 4° C., multiple replicates, read-out: average EC50 of the binding inhibition curve): 13.7 ± 0.6 µM
- EC50 ([4]; 1 nM IL-8, FIG. 10, peptide premixed with ligand 15 min, read-out: EC50, inhibition of binding of IL-8 to neutrophils): ~25 µM
- inhibition of IL-8 binding to neutrophils ([4]; 10 μM peptide (FIG. 9)): 20%
- Receptor 1 Bmax of IL-8, two-site model ([4]; 10 μM peptide): 91.9 ± 9.2 fmole/10^6 cells
- Receptor 2 Bmax of IL-8, two-site model ([4]; 10 μM peptide): 90.9 ± 9.7 fmole/10^6 cells
- IL-8 binding inhibition at lower peptide concentration (FIG. 1) ([4]; 20 μM peptide): most potent inhibitor
- Receptor 1 Bmax of IL-8, two-site model ([4]; 20 μM peptide): 90.9 ± 27.3 fmole/10^6 cells
- Receptor 2 Bmax of IL-8, two-site model ([4]; 20 μM peptide): 76.2 ± 11.8 fmole/10^6 cells
- Receptor 1 Bmax of IL-8, two-site model ([4]; 40 μM peptide): 82.0 ± 25.4 fmole/10^6 cells
- Receptor 2 Bmax of IL-8, two-site model ([4]; 40 μM peptide): 44.2 ± 30.0 fmole/10^6 cells
- % INHIB. (IL-8 binding to neutrophils) ([4]; 100 μM peptide, 10^−12 M IL-8, hexamer RRWWCX series, first screen): 112.2%
- Receptor 1 Bmax of IL-8 [4, 5]: 11.2 ± 0.8 fmole/10^6 cells
- Receptor 2 Bmax of IL-8 [4, 5]: 75.6 ± 0.7 fmole/10^6 cells
- % INHIB. (IL-8 binding to neutrophils) ([4]; first set of heptamer studies, D-amino acid RRWWCRX series, methodology of Example I): 112.2%
- effectiveness relative to the non-acetylated peptide ([4]; inhibiting IL-8 binding to neutrophils): almost twice as effective
- IC50 ([4]; read-out: IC50, binding of radiolabeled IL-8): 13.7 µM
- Ki ([4]; specific binding of 125I-labeled IL-8, read-out: apparent K1 (estimated, purely competitive single site model)): ~10 µM
- % Binding Inhibition (IL-8 binding to neutrophils) ([4]; synthetic peptides, standard assay (Table 6)): 98.6 ± 0.9%
